Measured values as given in patent US9669035B2, “Combinations comprising PDE 2 inhibitors such as 1-aryl-4-methyl-[1,2,4]triazolo-[4,3-A]]quinoxaline compounds and PDE 10 inhibitors for use in the treatment of neurological of metabolic disorders” (Janssen Pharmaceutica NV, priority 2012, dated 2017).
Read-outs that look alike come from different tables or passages of the source.

Tests used:
[1] = system: d-Amphetamine-induced hyperlocomotion in rats; assay: Inhibition of d-amphetamine-induced hyperlocomotion in rats in combination with Compound A and Compound B (FIGS. 9, 10); type: in vivo; conditions: Rattus norvegicus, sc
Procedure: (§1) Shown are individual values (open and closed circles for PDE2-i at 0 and 10 mg/kg, respectively) and median values (horizontal lines) for distance traveled per dose group. The dotted horizontal lines represent the criteria adopted for drug-induced effects (<5500 and <1100 cm). In FIG. 9: * p<0.05, ** p<0.01, *** p<0.001 (Bonferroni posttests 0 vs 10 mg/kg).
The dotted horizontal lines represent the critical levels for drug-induced effects (<5500 cm and <1100 cm).
as §1, with “[…] This is also reflected in the listed ED50 values.” for “In FIG. 9: * p<0.05, ** p<0.01, *** p<0.001 (Bonferroni posttests 0 vs 10 mg/kg).”

[2] = system: Apomorphine-induced agitation in rats; assay: Inhibition of apomorphine-induced agitation in rats in combination with Compound A and Compound B (FIGS. 4, 5); type: in vivo; conditions: Rattus norvegicus, sc
Procedure: Shown are individual scores (open and closed circles for PDE2-i at 0 and 10 mg/kg, respectively) and median scores (horizontal lines) for agitation per dose group. In FIG. 4: * p<0.05, ** p<0.01, *** p<0.001 (Bonferroni posttests 0 vs 10 mg/kg).
In FIG. 5: * p<0.05 (Dunnett's Multiple Comparison Test vs. 0 mg/kg)
Shown are individual scores (open and closed circles for PDE2-i at 0 and 10 mg/kg, respectively) and median scores (horizontal lines) for agitation per dose group. […] This is also reflected in the listed ED50 values.

[3] = target: Rat recombinant PDE10A (rPDE10A2) (Rattus norvegicus (Rat), UniProt Q9QYJ6); assay: In vitro assay PDE10A (SPA, 3H-cAMP); type: biochemical
Rat recombinant PDE10A (rPDE10A2), sequence (Q9QYJ6 whole entry): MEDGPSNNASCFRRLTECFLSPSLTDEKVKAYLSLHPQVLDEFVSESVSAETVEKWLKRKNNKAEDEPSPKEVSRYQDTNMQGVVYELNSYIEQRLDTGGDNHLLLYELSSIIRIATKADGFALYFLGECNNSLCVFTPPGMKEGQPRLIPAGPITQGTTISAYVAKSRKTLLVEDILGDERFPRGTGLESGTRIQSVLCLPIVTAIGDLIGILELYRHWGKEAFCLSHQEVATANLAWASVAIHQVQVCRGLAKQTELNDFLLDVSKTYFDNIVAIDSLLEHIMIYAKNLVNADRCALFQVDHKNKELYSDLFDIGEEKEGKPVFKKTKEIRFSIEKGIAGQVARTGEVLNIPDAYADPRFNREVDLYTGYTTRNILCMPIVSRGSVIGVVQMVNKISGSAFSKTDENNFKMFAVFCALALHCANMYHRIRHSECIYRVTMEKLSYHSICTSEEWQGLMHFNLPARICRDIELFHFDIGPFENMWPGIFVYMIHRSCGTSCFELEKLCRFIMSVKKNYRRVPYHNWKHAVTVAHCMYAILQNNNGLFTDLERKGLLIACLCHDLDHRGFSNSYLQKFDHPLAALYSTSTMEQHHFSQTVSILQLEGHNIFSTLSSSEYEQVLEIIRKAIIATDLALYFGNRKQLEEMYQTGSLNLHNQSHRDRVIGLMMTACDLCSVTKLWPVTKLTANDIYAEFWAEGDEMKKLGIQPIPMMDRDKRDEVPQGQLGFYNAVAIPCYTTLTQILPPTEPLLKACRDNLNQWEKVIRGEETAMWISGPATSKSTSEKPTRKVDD

[4] = system: Apomorphine-induced agitation in rats; assay: Inhibition of apomorphine-induced agitation in rats (APO)
[5] = system: Apomorphine-induced agitation in rats; assay: Inhibition of apomorphine-induced agitation in rats in combination with MP-10; type: in vivo, rat; conditions: SC, MP-10 (0.63 mg/kg) + apomorphine (1.0 mg/kg) i.v.
Procedure: Inhibition of Apomorphine-induced Agitation in Rats in combination with MP-10 but the animals were simultaneously challenged with MP-10 (0.63 mg/kg) in addition to apomorphine (1.0 mg/kg) via one injection (2 ml/kg, i.v.), at a fixed time interval (standard 1 h) after s.c. or p.o. dosing of test compound or solvent. Twelve times, every 5 min, the intensity of agitation was scored 0 to 3.

[6] = system: d-Amphetamine-induced hyperlocomotion in rats; assay: d-Amphetamine-induced hyperlocomotion in rats: potentiation of the effect of MP-10; type: in vivo, rat; conditions: d-amphetamine (1.25 mg/kg, s.c.) + MP-10 (2.5 mg/kg, s.c.)
[7] = SC, lowest dose at which >=67% tested animals respond

SMILES | PIC50 PDE10 ([3]; -log IC50 expressed in mol/L) | Dose at max effect ([4]; SC) | Max effect (lowest median cumulative agitation score) ([4]; SC, at the dose at max effect) | LAD (lowest active dose) [4, 7] | further results
COCCc1ccc(-c2c(C)nc3c(N4CCOCC4)ccnn23)cn1 [Compound A] | – | – | – | – | ED50 ([1]; read-out: ED50 (95% confidence limits) for reducing distance traveled to <1100 cm, PDE10-i s.c., -1 h, co-treatment with B-1a 0 mg/kg): > 40 mg/kg; ED50 ([1]; read-out: ED50 (95% confidence limits) for reducing distance traveled to <1100 cm, PDE10-i s.c., -1 h, co-treatment with B-1a 10 mg/kg s.c.): 6.2 mg/kg; ED50 ([1]; read-out: ED50 (95% confidence limits) for reducing distance traveled to <5500 cm, PDE10-i s.c., -1 h, co-treatment with B-1a 0 mg/kg): 0.89 mg/kg; ED50 ([1]; read-out: ED50 (95% confidence limits) for reducing distance traveled to <5500 cm, PDE10-i s.c., -1 h, co-treatment with B-1a 10 mg/kg s.c.): 0.67 mg/kg; ED50 ([2]; read-out: ED50 (95% confidence limits) for reducing agitation score to <5, PDE10-i s.c., -1 h, co-treatment with B-1a 0 mg/kg): ≥ 40 mg/kg; ED50 ([2]; read-out: ED50 (95% confidence limits) for reducing agitation score to <5, PDE10-i s.c., -1 h, co-treatment with B-1a 10 mg/kg s.c.): 12.4 mg/kg; ED50 ([2]; read-out: ED50 (95% confidence limits) for reducing agitation score to <10, PDE10-i s.c., -1 h, co-treatment with B-1a 0 mg/kg): 16.3 mg/kg; ED50 ([2]; read-out: ED50 (95% confidence limits) for reducing agitation score to <10, PDE10-i s.c., -1 h, co-treatment with B-1a 10 mg/kg s.c.): 6.2 mg/kg; ED50 ([2]; read-out: ED50 (95% confidence limits) for reducing agitation score to <21, PDE10-i s.c., -1 h, co-treatment with B-1a 0 mg/kg): 2.71 mg/kg; ED50 ([2]; read-out: ED50 (95% confidence limits) for reducing agitation score to <21, PDE10-i s.c., -1 h, co-treatment with B-1a 10 mg/kg s.c.): 3.1 mg/kg
CCCCOc1ccc(Cl)c(-c2nnc3c(C)nc4ccc(CN5CCOCC5)cc4n23)c1.Cl [Compound B-2, 1-(5-Butoxy-2-chlorophenyl)-4-methyl-8-(morpholin-4-ylmethyl) [1,2,4]triazolo-[4,3-a]quinoxaline hydrochloride] | 5.79 | – | – | – | –
CCNCc1ccc2nc(C)c3nnc(-c4ccccc4Cl)n3c2c1 [Compound B-4, N-{[1-(2-Chlorophenyl)-4-methyl[1,2,4]triazolo[4,3-a]quinoxalin-8-yl]methyl}-ethanamine] | 6.8 | 10 | 21 | >10 | –
Cc1nc2ccc(CN3CCOCC3)cc2n2c(-c3c(F)cccc3Cl)nnc12 [Compound B-5, 1-(2-Chloro-6-fluorophenyl)-4-methyl-8-(morpholin-4-ylmethyl) [1,2,4]triazolo[4,3-a]quinoxaline] | – | 40 | 1 | 0.63 | –
Cc1nc2ccc(CN3CCOCC3)cc2n2c(-c3cc(OC(C)C)ccc3Cl)nnc12 [Compound B-6] | 5.73 | – | – | – | Inh. of agitation < 10 Effect (cumulative agitation score) ([5]; Time 60, dose 2.5): 13; Inh. of agitation < 10 Effect (cumulative agitation score) ([5]; Time 60, dose 10): 1; Distance Total <2500 cm Effect ([6]; PO, Time -60, dose 10): 5033 cm; Distance Total <2500 cm Effect ([6]; SC, Time -60, dose 0.63): 3096 cm; Distance Total <2500 cm Effect ([6]; SC, Time -60, dose 2.5): 1206 cm; Distance Total <2500 cm Effect ([6]; SC, Time -60, dose 10): 743.7 cm
CCOc1ccc(Cl)c(-c2nnc3c(C)nc4ccc(CN5CCOCC5)cc4n23)c1 [Compound B-7] | 6.58 | 10 | 24 | >10 | –
CCCOc1ccc(Cl)c(-c2nnc3c(C)nc4ccc(CN5CCOCC5)cc4n23)c1 [Compound B-8] | 6.49 | 10 | 23 | >10 | –
Cc1nc2ccc(CN3CCOCC3)cc2n2c(-c3cc(F)ccc3Cl)nnc12 [Compound B-9] | 7.07 | 10 | 9 | – | LAD (lowest active dose) ([4]; rat, in vivo): 2.5
COc1ccc(Cl)c(-c2nnc3c(C)nc4ccc(CN5CCOCC5)cc4n23)c1 [Compound B-10] | 6.98 | – | – | – | Dose at Max Effect ([4]; PO): 10; Max effect (lowest median cumulative agitation score) ([4]; PO, at the dose of column Dose at Max Effect): 21; LAD (lowest active dose) ([4]; rat, in vivo): >10
COc1cncc(-c2nnc3c(C)nc4ccc(CN5CCOCC5)cc4n23)c1 [Compound B-12] | 6.57 | 10 | 21 | >10 | –
Cc1nc2ccc(CN(C)C)cc2n2c(-c3ccccc3Cl)nnc12 [Compound B-13] | 6.97 | 10 | 20.5 | – | LAD (lowest active dose) ([4]; rat, in vivo): >10
CCCOc1ccc(Cl)c(-c2nnc3c(C)nc4ccc(CNCC)cc4n23)c1 [Compound B-14] | – | – | – | – | PIC50 PDE10 [3]: 5.75
CCCOc1ccc(Cl)c(-c2nnc3c(C)nc4ccc(CN(C)C)cc4n23)c1 [Compound B-15] | – | – | – | – | PIC50 PDE10 [3]: 5.83
CCCOc1cncc(-c2nnc3c(C)nc4ccc(CN5CCOCC5)cc4n23)c1 [Compound B-16] | 5.21 | – | – | – | –
Cc1nc2ccc(CN(C)C)cc2n2c(-c3cc(OC(C)C)ccc3Cl)nnc12 [Compound B-17] | – | – | – | – | PIC50 PDE10 [3]: 5.8; Inh. of agitation < 10 Effect (cumulative agitation score) ([5]; Time 60, dose 10): 12; Distance Total <2500 cm Effect ([6]; SC, Time -60, dose 2.5): 4133 cm; Distance Total <2500 cm Effect ([6]; SC, Time -60, dose 10): 1721 cm
